Values joined by “and” are separate entries in the source; they are usually repeats but may differ in a detail not shown here. Identical values can stand only once. Like-named read-outs stand apart in the source and are kept apart here.
Legend:
[1] = tested on: postmenopausal person; settings: singular use; cited from earlier work
[2] = target: T1, recombinant human ERα (Homo sapiens, UniProt P03372); experiment: ERα binding assay: competition of [3H]E2 binding by competing estrogens; settings: for RBAα % (relative binding affinity for ERα, of E2): calculated against E2 = 100; for RBAα/RBAβ: ratio of relative binding affinities ERα over ERβ; for IC50: read-out: ERα IC50; for binding affinity for ERα (in words): concentrations up to 1000 nM; for RBAα/RBAβ determined by extrapolating the curves: extrapolated from curves of FIGS. 3-7, IC50 not reached
T1 construct: purchased PanVera Corporation (Madison, Wis.); host or cells: baculovirus-mediated expression system
T1 sequence (P03372 1-595): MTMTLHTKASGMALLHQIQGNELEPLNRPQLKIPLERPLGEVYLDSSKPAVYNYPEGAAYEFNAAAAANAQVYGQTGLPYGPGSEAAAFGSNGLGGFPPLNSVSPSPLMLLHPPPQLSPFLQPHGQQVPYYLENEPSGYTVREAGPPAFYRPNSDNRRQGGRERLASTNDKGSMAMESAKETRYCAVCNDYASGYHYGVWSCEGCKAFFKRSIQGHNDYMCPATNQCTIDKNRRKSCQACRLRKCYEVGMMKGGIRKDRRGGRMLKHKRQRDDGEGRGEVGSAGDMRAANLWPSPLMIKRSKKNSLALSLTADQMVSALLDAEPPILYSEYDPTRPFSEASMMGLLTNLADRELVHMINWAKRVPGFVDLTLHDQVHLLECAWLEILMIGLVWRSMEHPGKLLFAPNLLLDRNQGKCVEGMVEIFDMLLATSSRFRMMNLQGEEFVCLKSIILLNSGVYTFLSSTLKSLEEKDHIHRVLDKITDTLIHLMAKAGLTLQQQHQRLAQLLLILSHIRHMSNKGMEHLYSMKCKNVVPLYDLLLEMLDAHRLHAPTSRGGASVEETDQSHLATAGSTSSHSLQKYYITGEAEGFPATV
From the text: (§1) The recombinant human ERα and ERβ proteins and bovine serum albumin (BSA) were obtained from PanVera Corporation (Madison, Wis.). According to the supplier, the recombinant human ERα and ERβ were produced in a baculovirus-mediated expression system, and they were soluble and functionally active, with post-translational modifications similar to those found in mammalian cells. See Reid et al., Human estrogen receptor-α: Regulation by synthesis, modification and degradation, Cell. Mol. Life.
(§2) The following buffer solutions were used in the ER binding assays, and they were prepared beforehand and stored at 4° C. The binding buffer consisted of 10% glycerol, 2 mM dithiothreitol, 1 mg/mL BSA and 10 mM Tris-HCl at pH 7.5. The ERα washing buffer contained 40 mM Tris-HCl and 100 mM KCl (pH 7.4), but the ERG washing buffer contained only 40 mM Tris-HCl (adjusted to pH 7.4). The 50% hydroxylapatite slurry was prepared first by vigorously mixing 10 g hydroxylapatite with 60 mL of the Tris-HCl solution (50 mM, pH 7.4). Hydroxylapatite was then allowed to settle for 20 minutes at room temperature, and the supernatant was decanted. The above procedures were repeated 10 times, and afterwards hydroxylapatite was kept in the 50 mM Tris-HCl solution overnight at 4° C. Hydroxylapatite slurry was then adjusted to an approximate final concentration of 50% (v/v) using the same Tris-HCl solution and stored at 4° C., and the slurry was stable for up to several months.
(§3) Note that all of the estrogens were initially dissolved in pure ethanol to a stock concentration of 1 mM, and then further diluted to 100 μM with 20% aqueous ethanol. […] Immediately before the addition of the ERα or ERβ protein, it was diluted in the binding buffer and mixed gently with repetitive pipettings. […] The incubation mixture was then mixed gently and thoroughly with repetitive pipettings. […] The binding mixture was incubated at room temperature for two hours. At the end of the incubation, 100 μL of the hydroxylapatite slurry was added to each tube and the tubes were incubated on ice for 15 minutes with 3 times of brief vortexing. An aliquot (1 mL) of the appropriate washing buffer was added, mixed, and centrifuged at 10,000 g for five minutes, and the supernatants were discarded. This wash step was repeated twice. Hydroxylapatite pellets were then resuspended in 200 μL ethanol (followed by another rinse with 200 μL ethanol), and then the content was transferred to scintillation vials (containing 4 mL of the scintillation fluid) for measurement of ^3H-radioactivity with a liquid scintillation counter (Packard Tri-CARB 2900 TR; Downers Grove, Ill.).
(§4) To calculate the specific binding (pmol/mL) of the human ERα or ERβ protein at each concentration point, the following equation was used: […]
(§5) When a lower radioligand concentration is used, the corresponding IC50 value will also be relatively lower, but when the radioligand concentration increases, the corresponding IC50 value will also increase. […] Since the RBA value is a parameter that is independent of the radioligand concentration used, we thus have placed more emphasis on the RBA values instead of the absolute IC50 values in interpreting the physiological meanings of the data from in vitro receptor competition assays.

[3] = target: T2, recombinant human ERβ (Homo sapiens, UniProt Q92731); experiment: ERβ binding assay: competition of [3H]E2 binding by competing estrogens; settings: for RBAβ (%) (relative binding affinity for ERβ, of E2): calculated against E2 = 100; for IC50: read-out: ERβ IC50; for binding affinity for ERβ (in words): concentrations up to 1000 nM
T2 construct: purchased PanVera Corporation (Madison, Wis.); host or cells: baculovirus-mediated expression system
From the text: as §1, §2, §3, §4, §5

[4] = [3H]E2 10 nM, competitor up to 1000 nM

T2 sequence (Q92731 whole entry): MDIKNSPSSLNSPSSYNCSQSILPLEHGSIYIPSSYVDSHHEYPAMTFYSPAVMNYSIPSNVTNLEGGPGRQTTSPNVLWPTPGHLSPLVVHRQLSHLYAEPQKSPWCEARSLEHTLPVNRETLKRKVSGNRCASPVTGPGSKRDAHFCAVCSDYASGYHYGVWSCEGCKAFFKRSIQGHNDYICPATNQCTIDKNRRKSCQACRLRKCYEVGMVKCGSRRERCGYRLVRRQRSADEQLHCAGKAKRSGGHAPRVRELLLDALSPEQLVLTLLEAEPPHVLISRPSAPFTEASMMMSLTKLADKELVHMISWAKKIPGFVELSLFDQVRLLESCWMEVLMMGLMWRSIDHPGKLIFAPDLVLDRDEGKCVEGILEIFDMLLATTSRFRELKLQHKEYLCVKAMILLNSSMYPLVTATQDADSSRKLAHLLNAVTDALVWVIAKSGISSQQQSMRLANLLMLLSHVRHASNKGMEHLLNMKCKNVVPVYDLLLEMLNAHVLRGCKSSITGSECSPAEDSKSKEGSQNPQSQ

| Structure (SMILES) | RBAα % (relative binding affinity for ERα, of E2) [2] | RBAα/RBAβ [2] | IC50 [2] | RBAβ (%) (relative binding affinity for ERβ, of E2) [3] | IC50 [3] | further results |
| --- | --- | --- | --- | --- | --- | --- |
| O=c1c(-c2ccc(O)cc2)coc2cc(O)cc(O)c12 [Genistein] |  |  |  |  |  | effectiveness as hormone replacement therapy [1]: ineffective |
| CC12CCC3c4ccc(O)cc4C(=O)CC3C1CC(O)C2O (centres unmarked) [6-Keto-E3, 6-Ketoestriol] | 25% | 8.3 | 44.7 nM | 3% | 316 nM | RBAα/RBAβ ([2]; listed as 6-ketoestriol): about 8.3; RBA for ERα, % of E3 ([2]; relative to E3): 224%; RBA for ERβ, % of E3 ([3]; relative to E3): 8% |
| Cc1c(O)ccc2c1CC[C@@H]1[C@@H]2CC[C@]2(C)[C@@H](O)CC[C@@H]12 [4-Methyl-E2, 4-Methylestradiol] | 7% and 9% | 0.3 | 126 nM | 35% | 25.1 nM |  |
| CC12CCC3c4ccc(O)c(N)c4CCC3C1CCC2=O (centres unmarked) [4-NH2-E1, 4-Aminoestrone] | 3% |  | 355 nM |  | > 1000 nM | binding affinity for ERα (in words) [2]: very weak binding affinities; binding affinity for ERβ (in words) [3]: very weak binding affinities |
| CC12CC(O)C3c4ccc(O)cc4CCC3C1CCC2O (stereo not drawn) [11β-OH-E2, 11β-Hydroxyestradiol] |  |  | > 1000 nM |  | > 1000 nM |  |
| CC12CCCC1C1CCc3cc(O)ccc3C1CC2 (centres unmarked) [17-Desoxy-E2, 17-Desoxyestradiol] | 16% | 0.4 | 70.8 nM | 45% | 19.9 nM |  |
| C[C@@]12C=CC[C@H]1[C@@H]1CCc3cc(O)ccc3[C@H]1CC2 [16-Estratetraen, 1,3,5(10),16-Estratetraen-3-ol] | 35% | 0.4 | 31.6 nM | 80% | 14.1 nM |  |
| C[C@]12CC[C@@H]3c4cc([N+](=O)[O-])c(O)cc4CC[C@H]3[C@@H]1CCC2=O [2-NO2-E1, 2-Nitroestrone] | 1% |  | 1580 nM |  | > 1000 nM | binding affinity for ERα (in words) [2]: very weak binding affinities; RBAα/RBAβ determined by extrapolating the curves [2]: about 3; RBAα/RBAβ determined by extrapolating the curves ([2]; listed as 2-nitorestrone): ~3; binding affinity for ERβ (in words) [3]: very weak binding affinities |
| CC12CCC3c4ccc(O)c(O)c4CCC3C1CCC2=O (centres unmarked) [4-OH-E1, 4-Hydroxyestrone] | 2% | 2 | 708 nM | 1% | 708 nM | RBAα/RBAβ ([2]; listed as 4-hydroxyestrone): about 2 |
| C[C@]12CC[C@@H]3c4ccc(O)c(Br)c4CC[C@H]3[C@@H]1CC[C@@H]2O [4-Br-E2, 4-Bromoestradiol] | 7% | 0.2 | 159 nM | 35% | 25.1 nM | preference of binding affinity for ERβ over ERα ([3]; ERβ over ERα): about 5 fold |
| CC12CCC3c4ccc(O)cc4C(=O)CC3C1CCC2=O (centres unmarked) [6-Keto-E1, 6-Ketoestrone] | 2% | 2 | 490 nM | 1% | 891 nM | RBAα/RBAβ ([2]; listed as 6-ketoestrone): about 2; RBA for ERα, % of E1 ([2]; relative to E1): 23%; RBA for ERβ, % of E1 ([3]; relative to E1): 50% |
| COc1cc2c(cc1O)CC[C@@H]1[C@@H]2CC[C@]2(C)C(=O)CC[C@@H]12 [2-MeO-E1, 2-Methoxyestrone] |  |  |  |  |  | IC50 [2, 4]: > 1000 nM; binding affinity for ERα (in words) [2]: did not have appreciable binding affinity; RBAα/RBAβ determined by extrapolating the curves [2]: about 1; IC50 [3, 4]: > 1000 nM; binding affinity for ERβ (in words) [3]: did not have appreciable binding affinity |
| C[C@]12CC[C@@H]3c4ccc(O)cc4C[C@@H](CCCCCCO)[C@H]3[C@@H]1CC[C@@H]2O [E2-7α-(CH2)6OH, 7α-(6-Hydroxyhexanyl)-17β-estradiol] | 27% | 0.7 | 41.8 nM | 40% | 22.3 nM |  |

Source: patent publication US20080293683A1, “Hormone Replacement Therapy” (University of Kansas Medical Center, priority 2007, published 2008)
